Earlier results on three compounds are cited in US20240260569A1, “DISINFECTANT LIQUID, PREPARATION METHOD THEREOF AND FILM LAYER” (Shanghai Anpas New Materials Science & Technology Co., Ltd., priority 2021, published 2024).

The conditions of data set [1]: relative to hypochlorite ions.
For data set [2] the following is noted: aqueous solution.

Like-named read-outs stand apart in the source and are kept apart here.

As to `OCl` [hypochlorous acid], the “disinfection and sterilization ability versus hypochlorite ions” value in data set [1] was 80 to 100 times.
Turning to `O=c1nc([O-])n(Cl)c(=O)n1Cl.[Na+]` [Sodium dichloroisocyanurate], in data set [2] (within a week), the active chlorine loss result is recorded as “about 50%”.
With `OCl` [sodium hypochlorite], the “pH of a 10% solution” value was “around 12”. In addition, the active chlorine loss in data set [2] (pH 9.4, after 14 days at 55° C.) is 63%. Moreover, the active chlorine loss in data set [2] (pH=8.7, after 14 days at 55° C.) was 94%.
